# Test system: greenhouse red spider mite (Tetranychus urticae)
# Test: Tetranychus urticae spray test, OP-resistant (TETRUR), bean leaf disks
# Type: in vivo
# Conditions: Tetranychus urticae, foliar, 144 h, application rate 100 g/ha, after 6 days; read-out: efficacy (spider mites killed)
# Procedure: After 6 days, the effect in % is determined.
row,SMILES,pest or weed control at 100 g/ha
1,Cc1cc(F)c(/N=C(\N)c2cccs2)cc1SCC(F)(F)F [Ia-181],90%

# Same assay, conditions: Tetranychus urticae, foliar, 144 h, application rate 500 g/ha, after 6 days; read-out: efficacy (spider mites killed)
row,SMILES,pest or weed control at 500 g/ha
1,CN(C)/C(=N/c1cc(SCC(F)(F)F)c(F)cc1Cl)C(F)(F)F [Ia-109],80%
2,Cc1cc(C)c(SCC(F)(F)F)cc1/N=C(\N)C(F)(F)Cl [Ia-122],100%
3,N/C(=N\c1cc(SCC(F)(F)F)c(Cl)cc1Cl)C1(Cl)CC1 [Ia-123],100%
4,N/C(=N/c1cc(SCC(F)(F)F)c(Cl)cc1Br)C(F)(F)F [Ia-124],100%
5,N/C(=N\c1cc(SCC(F)(F)F)c(Cl)cc1Cl)C(F)F [Ia-125],100%
6,CN/C(=N/c1cc(SCC(F)(F)F)c(C)cc1F)c1cccc(F)c1 [Ia-126],100%
7,Cc1cc(C)c(SCC(F)(F)F)cc1/N=C(\N)C(F)(F)C(F)(F)F [Ia-127],100%
8,Cc1cc(F)c(/N=C(\c2ccc(F)cc2)N(C)C)cc1SCC(F)(F)F [Ia-128],90%
9,Cc1cc(F)c(/N=C(\c2ccc(C#N)cc2)N(C)C)cc1SCC(F)(F)F [Ia-131],100%
10,Cc1cc(F)c(N=C(N)CC#N)cc1SCC(F)(F)F [Ia-132],100%
11,Cc1cc(F)c(N=C(N)c2ccccc2F)cc1SCC(F)(F)F [Ia-133],100%
12,CN/C(=N\c1cc(SCC(F)(F)F)c(Cl)cc1Cl)c1cccnc1 [Ia-136],100%
13,Cc1cc(F)c(/N=c2\sc(C)c(C)n2CC(F)(F)F)cc1SCC(F)(F)F [Ia-138],100%
14,N/C(=N\c1cc(SCC(F)(F)F)c(Cl)cc1Cl)C1CC1(Cl)Cl (centres unmarked) [Ia-140],100%
15,N/C(=N\c1cc(SCC(F)(F)F)c(Cl)cc1Cl)c1cccnc1 [Ia-141],100%
16,CN/C(=N/c1cc(SCC(F)(F)F)c(C)cc1F)c1ccc(F)cc1 [Ia-144],100%
17,Cc1cc(F)c(/N=C(\c2ccccc2F)N(C)C)cc1SCC(F)(F)F [Ia-147],100%
18,CN/C(=N\c1cc(SCC(F)(F)F)c(C)cc1F)c1cnc(Cl)c(Cl)c1 [Ia-148],100%
19,C=CCN/C(=N\c1cc(SCC(F)(F)F)c(C)cc1F)c1ccc(Cl)nc1 [Ia-150],100%
20,CCN/C(=N\c1cc(SCC(F)(F)F)c(C)cc1F)c1cccnc1 [Ia-151],100%
21,CN/C(=N\c1cc(SCC(F)(F)F)c(Cl)cc1Cl)c1ccc(Cl)nc1 [Ia-152],100%
22,FC(F)(F)CN/C(=N\c1cc(SCC(F)(F)F)c(Cl)cc1Cl)C1CC1 [Ia-153],100%
23,NN/C(=N/c1cc(SCC(F)(F)F)c(Cl)cc1F)C(F)(F)F [Ia-155],90%
24,N/C(=N\c1cc(SCC(F)(F)F)c(Cl)cc1Cl)C1CCCCC1 [Ia-156],100%
25,Cc1cc(F)c(/N=C(\NC2CC2)c2ccc(Cl)nc2)cc1SCC(F)(F)F [Ia-158],100%
26,CN/C(=N/c1cc(SCC(F)(F)F)c(C)cc1F)c1ccc(C(F)(F)F)nc1 [Ia-159],90%
27,Cc1cc(F)c(/N=C(\c2ccc(C(F)(F)F)nc2)N(C)C)cc1SCC(F)(F)F [Ia-160],90%

row,SMILES,pest or weed control at 500 g/ha
1,Cc1cc(F)c(/N=C(\N)C2CCCC2)cc1SCC(F)(F)F [Ia-161],100%
2,CN/C(=N\c1cc(SCC(F)(F)F)c(C)cc1F)C1CC1 [Ia-163],100%
3,Cc1cc(C)c(SCC(F)(F)F)cc1/N=C(/c1cccnc1)N(C)C [Ia-167],90%
4,CN/C(=N/c1cc(SCC(F)(F)F)c(C)cc1F)c1ccc(Cl)nc1 [Ia-168],90%
5,Cc1cc(F)c(/N=C(\N)C2CCCCC2)cc1SCC(F)(F)F [Ia-169],90%
6,N/C(=N\c1cc(SCC(F)(F)F)c(Cl)cc1Cl)c1ccncc1 [Ia-172],90%
7,N#CC/C(N)=N/c1cc(SCC(F)(F)F)c(Cl)cc1Cl [Ia-173],90%
8,CN/C(=N\c1cc(SCC(F)(F)F)c(C)cc1C)c1ccc(Cl)cc1 [Ia-176],90%
9,CN/C(=N\c1cc(SCC(F)(F)F)c(Cl)cc1Cl)c1cccc(Cl)c1 [Ia-177],90%
10,C/C=C/C=C/C(=N/c1cc(SCC(F)(F)F)c(C)cc1F)NC(C)CC (centres unmarked) [Ia-178],90%
11,Cc1cc(F)c(/N=C(/N2CCCC2)C(F)(F)F)cc1SCC(F)(F)F [Ia-180],90%
12,Cc1cc(C)c(SCC(F)(F)F)cc1/N=C1\SCC(=O)N1C1CC1 [Ia-187],100%
13,Cc1cc(F)c(/N=C2\SCC(=O)N2CC(F)F)cc1SCC(F)(F)F [Ia-188],100%
14,Cc1cc(C)c(SCC(F)(F)F)cc1/N=C(\N)c1cnccn1 [Ia-190],90%
15,O=C1CS/C(=N\c2cc(SCC(F)(F)F)c(Cl)cc2F)N1CC(F)(F)F [Ia-192],90%
16,Cc1cc(F)c(/N=C(/c2ccccc2)N(C)C)cc1SCC(F)(F)F [Ia-193],100%
17,O=C1CS/C(=N\c2ccc(Cl)c(SCC(F)(F)F)c2)N1CC(F)(F)F [Ia-194],100%
18,Cc1ccc(/N=C2\SCC(=O)N2CC(F)(F)F)cc1SCC(F)(F)F [Ia-195],100%
19,O=C1CS/C(=N\c2cc(SCC(F)(F)F)c(Cl)cc2Cl)N1C1CC1 [Ia-196],90%
20,Cc1cc(F)c(/N=C2\SCC(=O)N2C2CC2)cc1SCC(F)(F)F [Ia-197],100%
21,Cc1cc(F)c(/N=C2\CCCN2C(C)C(F)(F)F)cc1SCC(F)(F)F (centres unmarked) [Ia-201],100%
22,CN/C(=N/c1cc(SCC(F)(F)F)c(C)cc1F)c1cccc(C(F)(F)F)c1 [Ia-203],100%
23,CN(C)/C(=N\c1cc(SCC(F)(F)F)c(Cl)cc1Cl)c1ccccc1 [Ia-205],100%
24,N/C(=N\c1cc(SCC(F)(F)F)c(Cl)cc1Cl)c1cnccn1 [Ia-208],100%
25,CN(C)/C(=N\c1cc(SCC(F)(F)F)c(Cl)cc1Cl)c1ccc(Cl)cc1 [Ia-211],100%
26,Cc1cc(F)c(/N=C(\c2cccc(C(F)(F)F)c2)N(C)C)cc1SCC(F)(F)F [Ia-212],90%
27,Cc1ccc(/N=C(/N)C(F)(F)F)cc1SCC(F)(F)F [Ia-213],100%

row,SMILES,pest or weed control at 500 g/ha
1,CN/C(=N\c1cc(SCC(F)(F)F)c(C)cc1C)c1ccccn1 [Ia-214],100%
2,Cc1cc(F)c(/N=C(/N)c2ccc(Cl)cc2)cc1SCC(F)(F)F [Ia-215],90%
3,Cc1cc(F)c(/N=C(/CC(F)(F)F)N(C)C)cc1SCC(F)(F)F [Ia-216],90%
4,CN/C(=N/c1ccc(Cl)c(SCC(F)(F)F)c1)C(F)(F)F [Ia-217],100%
5,CN/C(=N/c1cc(SCC(F)(F)F)c(C)cc1F)c1ccc(Cl)s1 [Ia-218],90%
6,N#CC1(/C(N)=N/c2cc(SCC(F)(F)F)c(Cl)cc2Cl)CC1 [Ia-219],90%
7,Cc1ccc(/C(=N/c2cc(SCC(F)(F)F)c(C)cc2F)N2CCOCC2)cc1 [Ia-221],100%
8,Cc1ccc(/N=C(/N(C)C)C(F)(F)F)cc1SCC(F)(F)F [Ia-222],100%
9,Cc1cc(F)c(/N=C(/N)c2ccc([N+](=O)[O-])cc2)cc1SCC(F)(F)F [Ia-223],90%
10,CCN/C(=N\c1cc(SCC(F)(F)F)c(C)cc1C)c1cccnc1 [Ia-224],100%
11,Cc1cc(F)c(/N=C(\N)C(C)C)cc1SCC(F)(F)F [Ia-225],100%
12,CN/C(=N/c1cc(SCC(F)(F)F)c(C)cc1F)C(F)(F)F [Ia-226],100%
13,CCN(C)/C(=N\c1cc(SCC(F)(F)F)c(C)cc1C)c1ccc(Cl)nc1 [Ia-227],100%
14,Cc1cc(F)c(/N=C(/c2ccccc2Cl)N2CCOCC2)cc1SCC(F)(F)F [Ia-230],100%
15,CCN(C)/C(=N\c1cc(SCC(F)(F)F)c(C)cc1C)c1ccc(Cl)cc1 [Ia-231],90%
16,Cc1cc(C)c(SCC(F)(F)F)cc1/N=C(\NC1CC1)c1ccc(Cl)nc1 [Ia-232],90%
17,CN/C(CC(F)(F)F)=N\c1cc(SCC(F)(F)F)c(C)cc1F [Ia-233],100%
18,Cc1cc(Cl)c(SCC(F)(F)F)cc1/N=C(\N)c1cnccn1 [Ia-234],100%
19,FC(F)(F)CSc1cc(/N=C(\NCCc2ncc(C(F)(F)F)cc2Cl)C2CC2)c(Cl)cc1Cl [Ia-235],90%
20,"COc1cc(C)c(SCC(F)(F)F)cc1/N=C(/N)C(F)(F)F [Ia-236, 2,2,2-Trifluoro-N′-{2-methoxy-4-methyl-5-[(2,2,2-trifluoroethyl)sulfanyl]phenyl}ethanimidamide]",100%
21,CN(C)/C(=N\c1cc(SCC(F)(F)F)c(Cl)cc1Cl)c1ccc(Cl)nc1 [Ia-237],90%
22,CN/C(=N\c1cc(SCC(F)(F)F)c(C)cc1C)c1ccncc1 [Ia-239],100%
23,Cc1cc(C)c(SCC(F)(F)F)cc1/N=C(/c1ccccc1)N(C)C [Ia-240],90%
24,Cc1cc(C)c(SCC(F)(F)F)cc1/N=C(\NCC(F)(F)F)C1CCCC1 [Ia-241],90%
25,Cc1cc(F)c(/N=C(\c2ccc(C(F)(F)F)cc2)N(C)C)cc1SCC(F)(F)F [Ia-242],100%
26,C#CCN/C(=N\c1cc(SCC(F)(F)F)c(Cl)cc1Cl)C1CC1 [Ia-244],90%

# Same assay, conditions: Tetranychus urticae, foliar, 144 h, read-out: efficacy (spider mites killed)
row,SMILES,pest or weed control at 500 g/ha
1,"Cc1cc(F)c(/N=C2/NCCS2)cc1SCC(F)(F)F [Ia-238, 2-Fluoro-4-methyl-N-[1,3-thiazolidin-2-ylidene]-5-[(2,2,2-trifluoroethyl)sulfanyl]aniline]",100%
2,Cc1cc(F)c(/N=C2\NCCO2)cc1SCC(F)(F)F [Ia-243],90%

# Source: patent US10051861B2, “N-arylamidine-substituted trifluoroethyl sulfide derivatives as acaricides and insecticides” (BAYER CROPSCIENCE AG, priority 2011, dated 2018)
